Like-named read-outs stand apart in the source and are kept apart here. One block for each compound: values may come before it.
Experiments:
[1] = target: T1, baculovirus-expressed ALK (Homo sapiens, UniProt Q9UM73); assay: ALK Kinase Assay (ELISA-type, time-resolved fluorescence); format: biochemical
T1 construct: host or cells: baculovirus expression system
In short: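 Plates coated with phospholipase C-γ substrate (10 μg/mL in TBS); reaction started with 30 ng/ml ALK and run 15 min at 37° C. Phosphorylated substrate detected with Eu-N1-labeled PT66 antibody. IC50 from sigmoidal variable-slope fit of percent inhibition vs log concentration.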

[2] = target: T2, c-Met (cytoplasmic domain) (Homo sapiens, UniProt P08581); assay: c-Met Kinase Assay (same methods as for ALK, with modifications); format: biochemical
T2 construct: 10 ng/mL c-Met (cytoplasmic domain, Invitrogen Corporation #PV3143); purchased Invitrogen Corporation PV3143
In short: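 Europium-labeled PT66 antibody (Eu-N1) detects substrate phosphorylation on wells coated with phospholipase C-γ at 10 μg/mL. The kinase, the cytoplasmic domain of c-Met at 10 ng/mL, starts the reaction, which proceeds 15 minutes at 37° C.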

[3] = 1 μM ATP (Km level), read-out: ALK Activity (ALK Kinase Inhibition, IC50)
[4] = 1 μM ATP (Km level), read-out: cMet Activity (c-Met Kinase Inhibition, IC50)
[5] = ALK kinase inhibition, 1 μM ATP, read-out: ALK Activity
[6] = c-Met kinase inhibition, 1 μM ATP, read-out: cMet Activity
[7] = ALK kinase inhibition, 1 μM ATP (Km level), read-out: ALK Activity
[8] = c-Met kinase inhibition, 1 μM ATP (Km level), read-out: cMet Activity
[9] = 1 μM ATP (Km level), 30 ng/ml ALK, 37° C., 15 minutes, read-out: ALK Activity (ALK kinase inhibition, IC50 class)
[10] = 1 μM ATP (Km level), 10 ng/mL c-Met, read-out: cMet Activity (c-Met kinase inhibition, IC50 class)

T2 sequence (P08581 956-1390 limits assumed): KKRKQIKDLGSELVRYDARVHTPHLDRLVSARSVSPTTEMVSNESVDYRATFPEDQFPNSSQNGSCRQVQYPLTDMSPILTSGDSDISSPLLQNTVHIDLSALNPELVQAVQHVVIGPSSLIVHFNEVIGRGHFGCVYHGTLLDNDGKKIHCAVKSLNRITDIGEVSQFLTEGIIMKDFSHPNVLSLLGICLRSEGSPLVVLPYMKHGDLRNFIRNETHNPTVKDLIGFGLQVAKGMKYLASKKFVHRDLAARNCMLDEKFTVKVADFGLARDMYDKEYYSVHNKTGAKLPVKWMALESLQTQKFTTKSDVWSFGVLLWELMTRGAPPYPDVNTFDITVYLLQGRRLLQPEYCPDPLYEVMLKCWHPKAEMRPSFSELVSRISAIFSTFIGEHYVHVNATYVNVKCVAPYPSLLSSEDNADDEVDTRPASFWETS
T1 sequence (Q9UM73 19-1620): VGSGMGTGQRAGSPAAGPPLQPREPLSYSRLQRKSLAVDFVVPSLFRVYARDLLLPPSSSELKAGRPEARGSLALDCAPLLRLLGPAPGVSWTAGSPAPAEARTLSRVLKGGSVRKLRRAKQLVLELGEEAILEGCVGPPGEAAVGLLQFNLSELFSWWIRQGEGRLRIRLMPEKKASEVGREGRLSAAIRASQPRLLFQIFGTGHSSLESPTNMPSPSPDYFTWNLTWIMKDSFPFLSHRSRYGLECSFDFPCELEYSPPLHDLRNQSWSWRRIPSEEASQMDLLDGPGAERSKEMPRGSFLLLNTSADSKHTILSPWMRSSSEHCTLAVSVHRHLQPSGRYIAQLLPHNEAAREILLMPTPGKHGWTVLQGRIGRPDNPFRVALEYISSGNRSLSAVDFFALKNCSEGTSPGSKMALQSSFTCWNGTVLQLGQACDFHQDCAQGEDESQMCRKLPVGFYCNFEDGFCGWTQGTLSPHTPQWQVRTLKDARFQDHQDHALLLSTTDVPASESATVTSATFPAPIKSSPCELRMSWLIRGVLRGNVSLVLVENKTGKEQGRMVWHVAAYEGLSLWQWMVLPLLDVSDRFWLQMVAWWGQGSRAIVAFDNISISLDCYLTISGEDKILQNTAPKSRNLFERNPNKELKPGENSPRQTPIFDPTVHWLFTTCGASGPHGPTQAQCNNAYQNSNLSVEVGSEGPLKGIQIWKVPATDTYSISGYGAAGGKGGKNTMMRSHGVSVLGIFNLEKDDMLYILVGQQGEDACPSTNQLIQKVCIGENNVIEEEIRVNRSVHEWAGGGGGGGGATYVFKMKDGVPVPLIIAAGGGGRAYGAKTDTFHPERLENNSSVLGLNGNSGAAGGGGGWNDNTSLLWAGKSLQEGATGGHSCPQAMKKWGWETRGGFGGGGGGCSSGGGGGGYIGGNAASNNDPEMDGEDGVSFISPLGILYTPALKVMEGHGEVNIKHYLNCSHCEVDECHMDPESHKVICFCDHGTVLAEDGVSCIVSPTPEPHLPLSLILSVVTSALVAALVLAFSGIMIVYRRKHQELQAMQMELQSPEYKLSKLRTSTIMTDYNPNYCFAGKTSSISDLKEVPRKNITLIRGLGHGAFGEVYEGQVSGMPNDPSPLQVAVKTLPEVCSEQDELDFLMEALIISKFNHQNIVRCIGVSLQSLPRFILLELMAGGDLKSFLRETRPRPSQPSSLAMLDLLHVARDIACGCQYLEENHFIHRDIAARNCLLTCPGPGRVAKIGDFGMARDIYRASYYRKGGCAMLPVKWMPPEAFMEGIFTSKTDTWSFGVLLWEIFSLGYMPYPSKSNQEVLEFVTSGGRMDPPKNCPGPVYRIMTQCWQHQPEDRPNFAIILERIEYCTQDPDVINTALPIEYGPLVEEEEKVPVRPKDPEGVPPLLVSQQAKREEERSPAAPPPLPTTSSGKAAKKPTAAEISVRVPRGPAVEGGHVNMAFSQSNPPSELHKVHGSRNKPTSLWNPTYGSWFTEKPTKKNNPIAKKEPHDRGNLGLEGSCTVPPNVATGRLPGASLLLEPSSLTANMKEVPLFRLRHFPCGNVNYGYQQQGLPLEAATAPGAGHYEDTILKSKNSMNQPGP

IC50 [1, 3]: 100 to 1000 nM | IC50 [2, 4]: 100 to 1000 nM
Compound: O=C1CCCc2cc(Nc3ncc(Cl)c(Nc4ccccc4-c4nc(C(F)(F)F)c[nH]4)n3)ccc2N1 [Example 1012, 7-{5-Chloro-4-[2-(4-trifluoromethyl-1H-imidazol-2-yl)-phenylamino]-pyrimidin-2-ylamino}-1,3,4,5-tetrahydro-benzo[b]azepin-2-one]

IC50 [1, 5]: 1000 to 10000 nM | IC50 [2, 6]: 1000 to 10000 nM
Compound: CC(C)[C@@H](Nc1nc(Nc2ccc3c(c2)CC(=O)N(C)CC3)ncc1Cl)C(N)=O [Example 1822, (R)-2-[5-Chloro-2-(3-methyl-4-oxo-2,3,4,5-tetrahydro-1H-benzo[d]azepin-7-ylamino)-pyrimidin-4-ylamino]-3-methyl-butyramide]

IC50 [1, 5]: < 100 nM | IC50 [2, 6]: < 100 nM
Compound: CNC(=O)c1c(F)cccc1Nc1nc(Nc2ccc3c(c2)CCOC(=O)N3C)ncc1Cl [Example 1756, 2-[5-Chloro-2-(5-methyl-6-oxo-5,6,8,9-tetrahydro-7-oxa-5-aza-benzocyclohepten-2-ylamino)-pyrimidin-4-ylamino]-6-fluoro-N-methyl-benzamide]

IC50 [1, 7]: < 100 nM | IC50 [2, 8]: 100 to 1000 nM
Compound: C#CCN1CCc2ccc(Nc3ncc(Cl)c(N[C@H]4[C@@H](C(N)=O)[C@@H]5C=C[C@H]4C5)n3)cc2CC1 (relative stereo) [Example 323, (2-exo, 3-exo)-3-[5-Chloro-2-(3-prop-2-ynyl-2,3,4,5-tetrahydro-1H-benzo[d]azepin-7-ylamino)-pyrimidin-4-ylamino]-bicyclo[2.2.1]hept-5-ene-2-carboxylic acid amide]

IC50 [1, 7]: < 100 nM | IC50 [2, 8]: 1000 to 10000 nM
Compound: CCN1CCc2ccc(Nc3ncc(Cl)c(N[C@@H]4c5ccccc5C[C@@H]4O)n3)cc2CC1 [Example 235, (1R,2S)-1-[5-Chloro-2-(3-ethyl-2,3,4,5-tetrahydro-1H-benzo[d]azepin-7-ylamino)-pyrimidin-4-ylamino]-indan-2-ol]

IC50 [1, 5]: < 100 nM | IC50 [2, 6]: < 100 nM
Compound: CNC(=O)c1cccc(F)c1Nc1nc(Nc2ccc3c(c2)N(C(C)C)CCCO3)ncc1Cl [Example 1734, 2-[5-Chloro-2-(9-isopropyl-6,7,8,9-tetrahydro-5-oxa-9-aza-benzocyclohepten-2-ylamino)-pyrimidin-4-ylamino]-3-fluoro-N-methyl-benzamide]

IC50 [1, 7]: < 100 nM | IC50 [2, 8]: 1000 to 10000 nM
Compound: 2-[5-Chloro-2-(6-methoxy-2-oxo-2,3,4,5-tetrahydro-1H-benzo[b]azepin-7-ylamino)-pyrimidin-4-ylamino]-N-methyl-benzamide [Example 3]

IC50 [1, 5]: < 100 nM | IC50 [2, 6]: > 10000 nM
Compound: COc1cc(N2CCOCC2)ccc1Nc1nc(Nc2cc(F)cc3c2OCCNC3=O)ncc1Cl [Example 1684, 9-[5-Chloro-4-(2-methoxy-4-morpholin-4-yl-phenylamino)-pyrimidin-2-ylamino]-7-fluoro-3,4-dihydro-2H-benzo[f][1,4]oxazepin-5-one]

IC50 [1, 7]: < 100 nM | IC50 [2, 8]: 100 to 1000 nM
Compound: CCN1CCN(CC)c2cc(Nc3ncc(Cl)c(Nc4ccccc4NS(C)(=O)=O)n3)ccc2C1 [Example 425, N-{2-[5-Chloro-2-(1,4-diethyl-2,3,4,5-tetrahydro-1H-benzo[e][1,4]diazepin-8-ylamino)-pyrimidin-4-ylamino]-phenyl}-methanesulfonamide]

IC50 [1, 9]: < 100 nM | IC50 [2, 10]: > 10000 nM
Compound: COc1cc2c(cc1Nc1ncc(Cl)c(N[C@@H]3CCCC[C@H]3NS(C)(=O)=O)n1)CCC(NCC(F)F)CC2 (single isomer, unassigned) [Example 1057]

IC50 [1, 3]: < 100 nM | IC50 [2, 4]: 1000 to 10000 nM
Compound: COCCN1CCc2ccc(Nc3ncc(Cl)c(Nc4ccccc4-c4ncccc4C(F)(F)F)n3)cc2CC1 [Example 992, 5-Chloro-N*2*-[3-(2-methoxy-ethyl)-2,3,4,5-tetrahydro-1H-benzo[d]azepin-7-yl]-N*4*-[2-(3-trifluoromethyl-pyridin-2-yl)-phenyl]-pyrimidine-2,4-diamine]

IC50 [1, 5]: < 100 nM | IC50 [2, 6]: 100 to 1000 nM
Compound: C=CCOc1cc(N(C)C)cc(F)c1Nc1nc(Nc2ccc3c(c2)CCN(CCOC)CC3)ncc1Cl [Example 1710, N*4*-(2-Allyloxy-4-dimethylamino-6-fluoro-phenyl)-5-chloro-N*2*-[3-(2-methoxy-ethyl)-2,3,4,5-tetrahydro-1H-benzo[d]azepin-7-yl]-pyrimidine-2,4-diamine]

IC50 [1, 3]: < 100 nM | IC50 [2, 4]: > 10000 nM
Compound: COc1cc2c(cc1Nc1ncc(Cl)c(Nc3ccccc3S(=O)(=O)N3CCN(C)CC3)n1)CCN(CC(=O)N(C)C)CC2 [Example 837, 2-(7-{5-Chloro-4-[2-(4-methyl-piperazine-1-sulfonyl)-phenylamino]-pyrimidin-2-ylamino}-8-methoxy-1,2,4,5-tetrahydro-benzo[d]azepin-3-yl)-N,N-dimethyl-acetamide]

IC50 [1, 5]: 1000 to 10000 nM | IC50 [2, 6]: 100 to 1000 nM
Compound: CNC(=O)c1ccccc1Nc1nc(Nc2ccc3c(c2)CC(=O)N(C)CC3)ncc1Cl [Example 1815, 2-[5-Chloro-2-(3-methyl-4-oxo-2,3,4,5-tetrahydro-1H-benzo[d]azepin-7-ylamino)-pyrimidin-4-ylamino]-N-methylbenzamide]

IC50 [1, 5]: < 100 nM | IC50 [2, 6]: < 100 nM
Compound: COCCN1C(=O)CCC(C)(C)c2ccc(Nc3ncc(Cl)c(Nc4c(F)cccc4OCC#N)n3)cc21 [Example 1521, (2-{5-Chloro-2-[1-(2-methoxy-ethyl)-5,5-dimethyl-2-oxo-2,3,4,5-tetrahydro-1H-1-benzazepin-8-ylamino]-pyrimidin-4-ylamino}-3-fluoro-phenoxy)-acetonitrile]

IC50 [1, 3]: < 100 nM | IC50 [2, 4]: > 10000 nM
Compound: COc1c(Nc2ncc(Cl)c(Nc3ccccc3S(=O)(=O)N(C)C)n2)ccc2c1CCCC(N1CCOCC1)C2 (centres unmarked) [Example 944, 2-[5-Chloro-2-(1-methoxy-6-morpholin-4-yl-6,7,8,9-tetrahydro-5H-benzocyclohepten-2-ylamino)-pyrimidin-4-ylamino]-N,N-dimethyl-benzenesulfonamide]

IC50 [1, 3]: < 100 nM | IC50 [2, 4]: 100 to 1000 nM
Compound: NC(=O)[C@@H]1[C@H](Nc2nc(Nc3ccc4c(c3)CCC(N3CCOCC3)CC4)ncc2Cl)[C@H]2C=C[C@@H]1C2 (single isomer, unassigned) [Example 682]

IC50 [1, 5]: 1000 to 10000 nM | IC50 [2, 6]: 1000 to 10000 nM
Compound: CCN1C(=O)CN(S(C)(=O)=O)Cc2ccc(Nc3ncc(Cl)c(Nc4ccsc4C(=O)NC)n3)cc21 [Example 1872, 3-[5-Chloro-2-(1-ethyl-4-methanesulfonyl-2-oxo-2,3,4,5-tetrahydro-1H-benzo[e][1,4]diazepin-8-ylamino)-pyrimidin-4-ylamino]-thiophene-2-carboxylic acid methylamide]

IC50 [1, 5]: 100 to 1000 nM | IC50 [2, 6]: < 100 nM
Compound: CNC(=O)c1sc(Cl)c(C)c1Nc1nc(Nc2ccc3c(c2)CCOC(=O)N3C)ncc1Cl [Example 1770, 5-Chloro-3-[5-chloro-2-(5-methyl-6-oxo-5,6,8,9-tetrahydro-7-oxa-5-aza-benzocyclohepten-2-ylamino)-pyrimidin-4-ylamino]-4-methyl-thiophene-2-carboxylic acid methylamide]

IC50 [1, 3]: < 100 nM | IC50 [2, 4]: < 100 nM
Compound: CNC(=O)c1cc(OC)ccc1Nc1nc(Nc2ccc3c(c2)CCN(CCOC)CC3)ncc1Cl [Example 618, 2-{5-Chloro-2-[3-(2-methoxy-ethyl)-2,3,4,5-tetrahydro-1H-benzo[d]azepin-7-ylamino]-pyrimidin-4-ylamino}-5-methoxy-N-methyl-benzamide]

IC50 [1, 3]: < 100 nM | IC50 [2, 4]: > 10000 nM
Compound: COc1ccc(Nc2nc(Nc3cc4c(cc3OC)CCN(CC3COCCO3)CC4)ncc2Cl)c(-n2cccn2)c1 (centres unmarked) [Example 636, 5-Chloro-N*2*-(3-[1,4]dioxan-2-ylmethyl-8-methoxy-2,3,4,5-tetrahydro-1H-benzo[d]azepin-7-yl)-N*4*-(4-methoxy-2-pyrazol-1-yl-phenyl)-pyrimidine-2,4-diamine]

IC50 [1, 5]: 100 to 1000 nM | IC50 [2, 6]: 100 to 1000 nM
Compound: CNC(=O)c1scc(C)c1Nc1nc(Nc2ccc3c(c2)C(C)(C)CCC(=O)N3)ncc1Cl [Example 1572, 3-[5-Chloro-2-(5,5-dimethyl-2-oxo-2,3,4,5-tetrahydro-1H-benzo[b]azepin-7-ylamino)-pyrimidin-4-ylamino]-4-methyl-thiophene-2-carboxylic acid methyl amide]

IC50 [1, 7]: < 100 nM | IC50 [2, 8]: 100 to 1000 nM
Compound: CS(=O)(=O)N1CCc2ccc(Nc3ncc(Cl)c(NC4C5C=CC(C5)C4C(N)=O)n3)cc2CC1 (stereo not drawn) [Example 321, (2-exo, 3-exo)-3-[5-Chloro-2-(3-methanesulfonyl-2,3,4,5-tetrahydro-1H-benzo[d]azepin-7-ylamino)-pyrimidin-4-ylamino]-bicyclo[2.2.1]hept-5-ene-2-carboxylic acid amide]

IC50 [1, 9]: < 100 nM | IC50 [2, 10]: > 10000 nM
Compound: CCN1C(=O)[C@@H](NC(=O)COC)CCc2c1ccc(Nc1ncc(Cl)c(N[C@H]3[C@@H](C(N)=O)[C@@H]4C=C[C@H]3C4)n1)c2OC (single isomer, unassigned) [Example 1351]

IC50 [1, 9]: < 100 nM | IC50 [2, 10]: < 100 nM
Compound: CCNC(=O)c1cccc(F)c1Nc1nc(Nc2ccc3c(c2)CCN(CC(=O)NC)CC3)ncc1Cl [Example 1372, 2-[5-Chloro-2-(3-methylcarbamoylmethyl-2,3,4,5-tetrahydro-1H-benzo[d]azepin-7-ylamino)-pyrimidin-4-ylamino]-N-ethyl-3-fluoro-benzamide]

— patent US8148391B2 (Cephalon, Inc., priority 2006, dated 2012)
